Measurements taken from ChEMBL document CHEMBL4007390, “Design, synthesis and biological evaluation of indolin-2-one-based derivatives as potent, selective and efficacious inhibitors of FMS-like tyrosine kinase3 (FLT3)” (Eur J Med Chem, 2017).

Experiments:
[1] = target: Tyrosine-protein kinase Lck (Homo sapiens) (UniProt P06239); experiment: Inhibition of human LCK at 0.1 uM relative to control
[2] = test system: NCI-H2228; experiment: Antiproliferative activity against human NCI-H2228 cells harboring ALK after 72 hrs by MTS assay; format: functional, cell-based; details: NCI-H2228, 72 h
[3] = target: Tyrosine-protein kinase JAK2 (Homo sapiens) (UniProt O60674); experiment: Inhibition of human JAK2 at 0.1 uM relative to control
[4] = target: Tyrosine-protein kinase receptor UFO (Homo sapiens) (UniProt P30530); experiment: Inhibition of human AXL at 0.1 uM relative to control
[5] = target: Platelet-derived growth factor receptor beta (Homo sapiens) (UniProt P09619); experiment: Inhibition of human PDGFRbeta at 0.1 uM relative to control
[6] = target: Serine/threonine-protein kinase PAK 4 (Homo sapiens) (UniProt O96013); experiment: Inhibition of human PAK4 at 0.1 uM relative to control
[7] = target: Insulin receptor (Homo sapiens) (UniProt P06213); experiment: Inhibition of human INSR at 0.1 uM relative to control
Sequence of Insulin receptor (Homo sapiens) (P06213 28-758 limits assumed): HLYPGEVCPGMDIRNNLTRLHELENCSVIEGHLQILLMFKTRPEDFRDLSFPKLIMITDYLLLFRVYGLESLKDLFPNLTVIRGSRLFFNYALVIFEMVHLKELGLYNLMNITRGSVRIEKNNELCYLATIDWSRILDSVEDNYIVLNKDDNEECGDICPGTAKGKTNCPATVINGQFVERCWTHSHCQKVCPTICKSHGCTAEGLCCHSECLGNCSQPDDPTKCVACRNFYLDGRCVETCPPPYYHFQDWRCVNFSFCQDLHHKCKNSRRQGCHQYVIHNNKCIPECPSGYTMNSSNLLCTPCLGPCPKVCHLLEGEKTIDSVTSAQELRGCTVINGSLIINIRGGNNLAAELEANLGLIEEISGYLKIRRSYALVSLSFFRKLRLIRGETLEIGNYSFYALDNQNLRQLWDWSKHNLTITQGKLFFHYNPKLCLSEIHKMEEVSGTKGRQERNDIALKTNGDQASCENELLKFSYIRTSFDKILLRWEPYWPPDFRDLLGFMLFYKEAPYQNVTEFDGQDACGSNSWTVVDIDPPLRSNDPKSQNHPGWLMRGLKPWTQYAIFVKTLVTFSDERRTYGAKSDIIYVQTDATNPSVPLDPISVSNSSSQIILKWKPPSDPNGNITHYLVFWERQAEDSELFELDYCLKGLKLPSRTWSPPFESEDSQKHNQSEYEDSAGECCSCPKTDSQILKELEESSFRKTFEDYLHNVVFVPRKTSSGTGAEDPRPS
Sequence of Insulin receptor (Homo sapiens) (P06213 763-1382 limits assumed): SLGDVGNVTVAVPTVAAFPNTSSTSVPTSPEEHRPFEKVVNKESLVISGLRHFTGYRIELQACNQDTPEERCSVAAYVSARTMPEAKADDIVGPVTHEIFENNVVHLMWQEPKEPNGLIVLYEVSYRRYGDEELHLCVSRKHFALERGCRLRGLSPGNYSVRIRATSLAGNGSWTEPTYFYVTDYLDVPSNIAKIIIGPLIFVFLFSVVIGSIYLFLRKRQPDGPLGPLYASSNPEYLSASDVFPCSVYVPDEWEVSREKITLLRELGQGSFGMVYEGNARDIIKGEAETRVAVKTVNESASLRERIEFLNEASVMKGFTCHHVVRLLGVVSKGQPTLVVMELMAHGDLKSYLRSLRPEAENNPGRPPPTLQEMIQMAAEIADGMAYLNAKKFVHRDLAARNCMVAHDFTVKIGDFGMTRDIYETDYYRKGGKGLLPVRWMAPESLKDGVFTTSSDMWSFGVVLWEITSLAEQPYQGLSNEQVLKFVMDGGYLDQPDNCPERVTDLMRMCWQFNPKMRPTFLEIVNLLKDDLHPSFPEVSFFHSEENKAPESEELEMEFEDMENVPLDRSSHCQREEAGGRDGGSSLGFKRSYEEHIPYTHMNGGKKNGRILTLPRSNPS

[8] = target: Mast/stem cell growth factor receptor Kit (Homo sapiens, UniProt P10721); experiment: Inhibition of human KIT at 0.1 uM relative to control
Sequence of Mast/stem cell growth factor receptor Kit (P10721 whole entry): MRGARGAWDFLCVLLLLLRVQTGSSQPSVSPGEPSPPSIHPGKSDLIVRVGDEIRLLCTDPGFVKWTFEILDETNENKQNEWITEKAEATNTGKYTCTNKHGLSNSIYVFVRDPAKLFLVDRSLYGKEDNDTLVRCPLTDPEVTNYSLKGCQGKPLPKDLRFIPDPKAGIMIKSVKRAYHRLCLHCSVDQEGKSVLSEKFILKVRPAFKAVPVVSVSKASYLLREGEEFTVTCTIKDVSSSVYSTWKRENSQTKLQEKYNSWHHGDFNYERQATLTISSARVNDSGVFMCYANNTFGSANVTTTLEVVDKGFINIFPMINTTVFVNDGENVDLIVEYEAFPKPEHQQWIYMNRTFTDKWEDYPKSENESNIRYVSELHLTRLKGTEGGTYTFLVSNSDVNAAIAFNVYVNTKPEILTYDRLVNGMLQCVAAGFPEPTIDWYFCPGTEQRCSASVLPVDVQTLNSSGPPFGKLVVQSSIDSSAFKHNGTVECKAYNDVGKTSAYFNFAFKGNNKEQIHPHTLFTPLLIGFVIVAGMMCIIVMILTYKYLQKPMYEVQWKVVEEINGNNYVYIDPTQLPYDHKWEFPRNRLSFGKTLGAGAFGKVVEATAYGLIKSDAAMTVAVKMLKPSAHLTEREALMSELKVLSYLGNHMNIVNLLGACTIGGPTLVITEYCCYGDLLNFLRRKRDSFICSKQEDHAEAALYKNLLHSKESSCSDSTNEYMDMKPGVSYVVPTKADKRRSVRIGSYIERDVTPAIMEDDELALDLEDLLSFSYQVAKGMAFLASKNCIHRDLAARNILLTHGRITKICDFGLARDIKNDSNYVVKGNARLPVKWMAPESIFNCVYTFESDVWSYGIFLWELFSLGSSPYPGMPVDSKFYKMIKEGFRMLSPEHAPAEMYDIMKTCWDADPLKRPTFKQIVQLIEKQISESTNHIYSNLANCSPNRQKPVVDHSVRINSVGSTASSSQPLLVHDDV

[9] = target: Serine/threonine-protein kinase PLK1 (Homo sapiens) (UniProt P53350); experiment: Inhibition of human PLK1 at 0.1 uM relative to control
[10] = target: ALK tyrosine kinase receptor (Homo sapiens) (UniProt Q9UM73); experiment: Inhibition of human ALK at 0.1 uM relative to control
[11] = test system: RAF proto-oncogene serine/threonine-protein kinase (Homo sapiens), P04049 [Y340D,Y341D]; experiment: Inhibition of human RAF1 Y340D/Y341D double mutant at 0.1 uM relative to control
[12] = test system: MV4-11; experiment: Antitumor activity against human MV4-11 cells xenografted in Harlan nude mouse assessed as tumor growth inhibition at 40 mg/kg, ig bid for 20 days relative to control; format: functional; details: MV4-11, po, 480 h, read-out: TGI
[13] = target: Cytochrome P450 2C8 (Homo sapiens, UniProt P10632); experiment: Inhibition of microsomal CYP2C8 (unknown origin) using amodiaquine as substrate preincubated for 5 mins followed by NADPH addition by LC-MS/MS analysis; format: ADME
[14] = Tmax in Balb/c nude mouse at 40 mg/kg, po via gavage by LC-MS/MS analysis; format: ADME, organism-based; details: in vivo
[15] = test system: MDA-MB-231; experiment: Antiproliferative activity against human MDA-MB-231 cells harboring K-Ras/B-Raf after 72 hrs by MTS assay; format: functional, cell-based; details: MDA-MB-231, 72 h
[16] = test system: MV4-11; experiment: Antitumor activity against human MV4-11 cells xenografted in Harlan nude mouse assessed as tumor growth inhibition at 10 mg/kg, ig bid for 20 days relative to control; format: functional; details: MV4-11, po, 480 h, read-out: TGI
[17] = target: Tyrosine-protein kinase SYK (Homo sapiens) (UniProt P43405); experiment: Inhibition of human SYK at 0.1 uM relative to control
[18] = test system: HUVEC; experiment: Antiproliferative activity against HUVEC after 72 hrs by MTS assay; format: cell-based; details: Homo sapiens
[19] = target: AMPK alpha2/beta1/gamma1 (Homo sapiens) (UniProt P54646+P54619+Q9Y478); experiment: Inhibition of human AMPK alpha2/beta1/gamma1 at 0.1 uM relative to control; format: protein-complex assay
Sequence of AMPK alpha2/beta1/gamma1 (Homo sapiens) (P54619 whole entry partner): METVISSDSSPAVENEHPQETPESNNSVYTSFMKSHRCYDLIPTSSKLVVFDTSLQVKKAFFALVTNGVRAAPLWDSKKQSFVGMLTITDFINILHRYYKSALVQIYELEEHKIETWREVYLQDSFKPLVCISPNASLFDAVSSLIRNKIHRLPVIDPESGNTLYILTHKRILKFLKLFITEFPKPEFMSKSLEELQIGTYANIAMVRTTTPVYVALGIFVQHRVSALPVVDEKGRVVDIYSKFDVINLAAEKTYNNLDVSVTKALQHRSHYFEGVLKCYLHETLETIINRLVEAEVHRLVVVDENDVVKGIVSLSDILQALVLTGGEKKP
Sequence of AMPK alpha2/beta1/gamma1 (Homo sapiens) (P54646 whole entry): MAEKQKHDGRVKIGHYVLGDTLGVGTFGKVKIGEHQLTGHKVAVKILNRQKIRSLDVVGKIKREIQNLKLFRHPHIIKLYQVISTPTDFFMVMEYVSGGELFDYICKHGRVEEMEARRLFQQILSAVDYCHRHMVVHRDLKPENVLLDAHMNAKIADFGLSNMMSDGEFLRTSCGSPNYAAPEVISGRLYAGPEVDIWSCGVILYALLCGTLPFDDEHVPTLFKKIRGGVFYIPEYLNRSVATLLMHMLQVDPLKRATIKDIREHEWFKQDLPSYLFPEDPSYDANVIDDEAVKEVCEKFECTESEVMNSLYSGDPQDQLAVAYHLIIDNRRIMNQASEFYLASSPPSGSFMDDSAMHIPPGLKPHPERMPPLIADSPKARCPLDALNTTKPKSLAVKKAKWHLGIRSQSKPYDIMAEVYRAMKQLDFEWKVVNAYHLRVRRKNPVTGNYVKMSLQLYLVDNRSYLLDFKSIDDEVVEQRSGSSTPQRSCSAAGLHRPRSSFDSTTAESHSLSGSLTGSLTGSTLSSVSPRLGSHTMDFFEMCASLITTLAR
Sequence of AMPK alpha2/beta1/gamma1 (Homo sapiens) (Q9Y478 2-270 partner limits assumed): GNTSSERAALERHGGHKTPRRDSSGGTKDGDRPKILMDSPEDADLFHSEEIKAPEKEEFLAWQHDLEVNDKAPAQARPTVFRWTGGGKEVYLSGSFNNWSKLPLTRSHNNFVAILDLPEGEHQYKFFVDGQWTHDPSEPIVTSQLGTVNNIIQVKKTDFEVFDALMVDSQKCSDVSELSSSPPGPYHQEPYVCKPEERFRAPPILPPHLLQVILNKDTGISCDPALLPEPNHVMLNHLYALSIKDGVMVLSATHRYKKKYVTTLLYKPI

[20] = test system: Mus musculus; experiment: Toxicity in Harlan nude mouse xenografted with human MV4-11 cells assessed as mouse death at 5 to 80 mg/kg, ig bid for 20 days; format: organism-based; details: in vivo, po, 480 h
[21] = target: Receptor-type tyrosine-protein kinase FLT3 (Homo sapiens, UniProt P36888); experiment: Inhibition of human FLT3
[22] = target: AMP-activated protein kinase (AMPK) alpha-1/beta-1/gamma-1 (Homo sapiens) (UniProt P54619+Q9Y478+Q13131); experiment: Inhibition of human AMPK alpha1/beta1/gamma1 at 0.1 uM relative to control; format: protein-complex assay
Sequence of AMP-activated protein kinase (AMPK) alpha-1/beta-1/gamma-1 (Homo sapiens) (P54619 whole entry): as the sequence (P54619 whole entry partner) above
Sequence of AMP-activated protein kinase (AMPK) alpha-1/beta-1/gamma-1 (Homo sapiens) (Q13131 whole entry partner): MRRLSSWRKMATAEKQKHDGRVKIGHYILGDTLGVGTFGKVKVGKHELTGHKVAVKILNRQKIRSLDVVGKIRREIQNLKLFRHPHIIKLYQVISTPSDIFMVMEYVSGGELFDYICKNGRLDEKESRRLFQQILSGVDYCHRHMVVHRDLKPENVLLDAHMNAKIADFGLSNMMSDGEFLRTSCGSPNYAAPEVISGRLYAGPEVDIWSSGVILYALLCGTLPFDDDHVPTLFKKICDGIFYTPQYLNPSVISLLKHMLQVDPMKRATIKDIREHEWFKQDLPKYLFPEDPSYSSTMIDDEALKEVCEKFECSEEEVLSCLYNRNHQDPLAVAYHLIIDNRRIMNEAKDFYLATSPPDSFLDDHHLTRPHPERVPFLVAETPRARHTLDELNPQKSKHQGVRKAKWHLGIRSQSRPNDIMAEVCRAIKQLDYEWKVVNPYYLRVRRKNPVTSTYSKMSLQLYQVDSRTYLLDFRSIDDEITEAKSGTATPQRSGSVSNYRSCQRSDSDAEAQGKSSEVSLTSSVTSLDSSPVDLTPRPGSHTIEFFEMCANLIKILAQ
Sequence of AMP-activated protein kinase (AMPK) alpha-1/beta-1/gamma-1 (Homo sapiens) (Q9Y478 2-270 partner limits assumed): as the sequence (Q9Y478 2-270 partner limits assumed) above

[23] = Toxicity in Harlan nude mouse xenografted with human MV4-11 cells administered ig bid for 20 days; details: in vivo, po
[24] = test system: MV4-11; experiment: Antiproliferative activity against human MV4-11 cells harboring FLT3 ITD mutant after 72 hrs by MTS assay; format: functional, cell-based; details: MV4-11, 72 h
[25] = target: Hepatocyte growth factor receptor (Homo sapiens) (UniProt P08581); experiment: Inhibition of human c-MET at 0.1 uM relative to control
[26] = test system: 786-0; experiment: Antiproliferative activity against human 786-O cells harboring VHL after 72 hrs by MTS assay; format: functional, cell-based; details: 786-0, 72 h
[27] = target: Cytochrome P450 2C9 (Homo sapiens, UniProt P11712); experiment: Inhibition of microsomal CYP2C9 (unknown origin) using diclofenac as substrate preincubated for 5 mins followed by NADPH addition by LC-MS/MS analysis; format: ADME
[28] = Oral bioavailability in Balb/c nude mouse at 40 mg/kg via gavage by LC-MS/MS analysis; format: ADME, organism-based; details: in vivo
[29] = target: Tyrosine-protein kinase ABL1 (Homo sapiens) (UniProt P00519); experiment: Inhibition of human ABL1 at 0.1 uM relative to control
[30] = target: Platelet-derived growth factor receptor alpha (Homo sapiens, UniProt P16234); experiment: Inhibition of human PDGFRalpha at 0.1 uM relative to control
[31] = target: Cytochrome P450 1A2 (Homo sapiens, UniProt P05177); experiment: Inhibition of microsomal CYP1A2 (unknown origin) using phenacetin as substrate preincubated for 5 mins followed by NADPH addition by LC-MS/MS analysis; format: ADME
[32] = target: Receptor-type tyrosine-protein kinase FLT3 (Homo sapiens, UniProt P36888, D835Y); experiment: Inhibition of human FLT3 D835Y mutant
[33] = test system: LC-2-ad; experiment: Antiproliferative activity against human LC2/ad cells harboring RET after 72 hrs by MTS assay; format: functional, cell-based
[34] = target: Cytochrome P450 2B6 (Homo sapiens, UniProt P20813); experiment: Inhibition of microsomal CYP2B6 (unknown origin) using bupropion as substrate preincubated for 5 mins followed by NADPH addition by LC-MS/MS analysis; format: ADME
[35] = test system: MV4-11; experiment: Antitumor activity against human MV4-11 cells xenografted in Harlan nude mouse assessed as tumor growth inhibition at 5 mg/kg, ig bid for 20 days relative to control; format: functional; details: MV4-11, po, 480 h, read-out: TGI
[36] = target: Vascular endothelial growth factor receptor 3 (Homo sapiens) (UniProt P35916); experiment: Inhibition of human VEGFR3 at 0.1 uM relative to control
[37] = target: Insulin-like growth factor 1 receptor (Homo sapiens) (UniProt P08069); experiment: Inhibition of human IGF1R at 0.1 uM relative to control
[38] = test system: Platelet-derived growth factor receptor alpha (Homo sapiens), P16234 [V561D]; experiment: Inhibition of human PDGFRalpha V561D mutant at 0.1 uM relative to control
[39] = target: Cyclin-dependent kinase 2 (Homo sapiens) (UniProt P24941); experiment: Inhibition of human CDK2 at 0.1 uM relative to control
[40] = target: Mitogen-activated protein kinase 1 (Homo sapiens) (UniProt P28482); experiment: Inhibition of human MAPK1 at 0.1 uM relative to control
Sequence of Mitogen-activated protein kinase 1 (Homo sapiens) (P28482 whole entry): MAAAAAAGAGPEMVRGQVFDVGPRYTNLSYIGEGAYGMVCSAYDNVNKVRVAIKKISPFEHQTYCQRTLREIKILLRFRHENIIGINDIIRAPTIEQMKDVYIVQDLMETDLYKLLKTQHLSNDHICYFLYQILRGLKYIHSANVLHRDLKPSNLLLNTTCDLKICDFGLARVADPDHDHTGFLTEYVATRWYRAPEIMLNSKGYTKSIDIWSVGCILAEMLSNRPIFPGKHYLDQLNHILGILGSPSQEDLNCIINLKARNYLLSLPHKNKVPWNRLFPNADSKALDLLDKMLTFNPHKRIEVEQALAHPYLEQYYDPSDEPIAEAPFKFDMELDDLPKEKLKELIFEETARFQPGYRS

## Cc1[nH]c(/C=C2\C(=O)Nc3ccc(F)cc32)c(C)c1NC(=O)[C@H]1CCCN1.Cl
[1]
  inhibition: 43%
[2]
  IC50: 3.44 µM
[3]
  inhibition: -4%
[4]
  inhibition: 44%
[5]
  inhibition: 48%
[6]
  inhibition: 14%
[7]
  inhibition: 16%
[8]
  inhibition: 85%
[9]
  inhibition: -3%
[10]
  inhibition: 63%
[11]
  inhibition: 18%
[12]
  inhibition in vivo at 40 mg/kg: 100%
[13]
  IC50: > 33 µM
[14]
  Tmax: 2 h
[15]
  IC50: > 20 µM
[16]
  inhibition in vivo at 10 mg/kg: 88.7%
[17]
  inhibition: -3%
[18]
  IC50: 11.3 µM
[19]
  inhibition: 58%
[20]
  Activity: Non-Toxic
[21]
  IC50: 0.0053 µM
[22]
  inhibition: 38%
[23]
  MTD at 480 h: 160 mg/kg/day
[24]
  IC50: 0.0248 µM
[25]
  inhibition: -8%
[26]
  IC50: 12.2 µM
[27]
  IC50: > 33 µM
[28]
  bioavailability: 59%
[29]
  inhibition: 20%
[30]
  inhibition: 49%
[31]
  IC50: 17.7 µM
[32]
  IC50: 0.0027 µM
[33]
  IC50: 0.621 µM
[34]
  IC50: > 33 µM
[35]
  inhibition in vivo at 5 mg/kg: 52.4%
[36]
  inhibition: 47%
[37]
  inhibition: 13%
[38]
  inhibition: 82%
[39]
  inhibition: 8%
[40]
  inhibition: -7%
